Source: US11185074B2, “Microbiocidal quinoline (thio)carboxamide derivatives” (SYNGENTA PARTICIPATIONS AG, priority 2017, dated 2021)

Key:
[1] = system: Botryotinia fuckeliana (Botrytis cinerea); test: Botryotinia fuckeliana (Botrytis cinerea) / liquid culture (gray mould); assay type: cell-based; conditions: 72 h, 20 ppm, liquid culture, inhibition of growth photometrically 3-4 days after application, compared to untreated control, read-out: control of Botryotinia fuckeliana
[2] = system: Glomerella lagenarium (Colletotrichum lagenarium); test: Glomerella lagenarium (Colletotrichum lagenarium) / liquid culture (anthracnose); assay type: cell-based; conditions: Colletotrichum orbiculare; 20 ppm; liquid culture, inhibition of growth photometrically 3-4 days after application; compared to untreated control; read-out: control of Glomerella lagenarium
Fusarium culmorum [3] = test: microbe, parasite or virus in culture; assay type: cell-based; conditions: read-out: control of Fusarium culmorum
Fusarium culmorum [4] = test: whole plant or invertebrate; assay type: in vivo, Fusarium culmorum on wheat spikelets cv. Monsun; conditions: in Triticum aestivum, read-out: control of Fusarium culmorum
[5] = system: Monographella nivalis (Microdochium nivale); test: Monographella nivalis (Microdochium nivale) / liquid culture (foot rot cereals); assay type: cell-based; conditions: 96 h, inhibition of growth photometrically 4-5 days after application, compared to untreated control
[6] = system: Magnaporthe grisea (Pyricularia oryzae); test: microbe, parasite or virus in culture; assay type: cell-based; conditions: 72 h, read-out: control of Magnaporthe grisea
Sclerotinia sclerotiorum = Sclerotinia sclerotiorum / liquid culture (cottony rot); conditions: 72 h, read-out: control of Sclerotinia sclerotiorum
Protocol: Sclerotinia sclerotiorum/Liquid Culture (Cottony Rot)
Mycelia fragments of a newly grown liquid culture of the fungus are directly mixed into nutrient broth (Vogels broth). After placing a (DMSO) solution of test compound into a microtiter plate (96-well format) the nutrient broth containing the fungal material is added. The test plates are incubated at 24° C. and the inhibition of growth is determined photometrically 3-4 days after application.

[7] = system: Magnaporthe grisea (Pyricularia oryzae); test: whole plant or invertebrate; assay type: in vivo; conditions: foliar, read-out: control of Magnaporthe grisea
[8] = system: Gibberella zeae (Fusarium graminearum); test: whole plant or invertebrate; assay type: in vivo; conditions: in Triticum aestivum, 144 h, read-out: control of Gibberella zeae

Structure (SMILES) | inhibition of growth at 20 ppm [1] | inhibition of growth at 20 ppm [2] | inhibition of growth at 20 ppm (Fusarium culmorum [3]) | pest or weed control at 200 ppm (Fusarium culmorum [4]) | inhibition of growth at 20 ppm [5] | inhibition of growth at 20 ppm [6] | melting point | inhibition of growth at 20 ppm (Sclerotinia sclerotiorum) | pest or weed control at 200 ppm [7] | pest or weed control at 200 ppm [8]
CC(CC1CC=CCC1)(CC(F)(F)F)NC(=O)c1cnc2c(F)cccc2c1 (centres unmarked) [E-54] | ≥ 80% | ≥ 80% | ≥ 80% | ≥ 80% | ≥ 80% | ≥ 80% | 115 to 118 °C | ≥ 80% | – | –
CC(C)(CCc1cccc(C(F)(F)F)c1)NC(=O)c1cnc2c(F)cccc2c1 [E-27] | ≥ 80% | ≥ 80% | ≥ 80% | – | ≥ 80% | – | – | – | ≥ 80% | –
CCCC(C)CC(C)(CC(F)(F)F)NC(=O)c1cnc2c(C)cccc2c1 (centres unmarked) [E-47] | ≥ 80% | ≥ 80% | ≥ 80% | ≥ 80% | ≥ 80% | ≥ 80% | – | – | ≥ 80% | –
CC(C)(C)C(CCc1ccccc1)NC(=O)c1cnc2c(F)cccc2c1 (centres unmarked) [E-14] | ≥ 80% | ≥ 80% | ≥ 80% | ≥ 80% | ≥ 80% | ≥ 80% | 55 to 65 °C | – | – | ≥ 80%
C[C@](CC1CCCC1)(CC(F)(F)F)NC(=O)c1cnc2c(F)cccc2c1 [F-5, N-[(1S)-1-(cyclopentylmeth-yl)-3,3,3-trifluoro-1-methyl-propyl]-8-fluoro-quinoline-3-carboxamide] | ≥ 80% | ≥ 80% | ≥ 80% | ≥ 80% | – | ≥ 80% | 102 to 105 °C | ≥ 80% | – | –
C=C(C)CC(C)(CC(=C)C)NC(=O)c1cnc2c(F)cccc2c1 [E-2, N-[1,3-dimethyl-1-(2-methylallyl)but-3-enyl]-8-fluoro-quinoline-3-carboxamide] | ≥ 80% | ≥ 80% | ≥ 80% | ≥ 80% | ≥ 80% | ≥ 80% | 116 to 118 °C | – | – | ≥ 80%
CC1(C[C@](C)(CC(F)(F)F)NC(=O)c2cnc3c(F)cccc3c2)CC1 [F-1, 8-fluoro-N-[(1R)-3,3,3-trifluoro-1-methyl-1-[(1-methylcyclo-propyl)meth-yl]propyl] quinoline-3-carboxamide] | ≥ 80% | ≥ 80% | ≥ 80% | ≥ 80% | ≥ 80% | ≥ 80% | – | – | – | ≥ 80%
CC(CC1CCCCC1)(CC(F)(F)F)NC(=O)c1cnc2c(F)c(F)ccc2c1 (centres unmarked) [E-58] | ≥ 80% | ≥ 80% | ≥ 80% | – | ≥ 80% | ≥ 80% | 99 to 102 °C | ≥ 80% | ≥ 80% | –
CCCC(C)CC(C)(CC(F)(F)F)NC(=O)c1cnc2ccccc2c1 (centres unmarked) [E-46] | ≥ 80% | ≥ 80% | ≥ 80% | ≥ 80% | – | – | – | – | – | ≥ 80%
CCCC(C)CC(C)NC(=O)c1cnc2c(C)cccc2c1 (centres unmarked) [E-42] | ≥ 80% | ≥ 80% | ≥ 80% | – | ≥ 80% | – | – | – | ≥ 80% | –
Cc1cccc2cc(C(=O)NC(C)(CC3CCCC3)CC(F)(F)F)cnc12 (centres unmarked) [E-64] | ≥ 80% | ≥ 80% | ≥ 80% | ≥ 80% | ≥ 80% | ≥ 80% | 108 to 116 °C | ≥ 80% | – | –
C[C@@](CC1CCCC1)(CC(F)(F)F)NC(=O)c1cnc2c(F)cccc2c1 [F-4, N-[(1R)-1-(cyclopentylmeth-yl)-3,3,3-trifluoro-1-methyl-propyl]-8-fluoro-quinoline-3-carboxamide] | ≥ 80% | ≥ 80% | ≥ 80% | – | ≥ 80% | ≥ 80% | 100 to 101 °C | ≥ 80% | ≥ 80% | –
Cc1cccc2cc(C(=O)NC(C)(CC3CCCCC3)CC(F)(F)F)cnc12 (centres unmarked) [E-61] | ≥ 80% | ≥ 80% | ≥ 80% | – | ≥ 80% | ≥ 80% | 107 to 110 °C | ≥ 80% | ≥ 80% | –
CC(CC1CCCCC1)(CC(F)(F)F)NC(=O)c1cnc2c(F)cccc2c1 (centres unmarked) [E-62] | ≥ 80% | ≥ 80% | ≥ 80% | – | ≥ 80% | ≥ 80% | 55 to 76 °C | ≥ 80% | ≥ 80% | –
C=C(C)CC(C)(CC(=C)C)NC(=O)c1cnc2c(F)c(F)ccc2c1 [E-56] | ≥ 80% | ≥ 80% | ≥ 80% | – | ≥ 80% | ≥ 80% | 117 to 120 °C | ≥ 80% | ≥ 80% | –
C[C@](CC1CCCCC1)(CC(F)(F)F)NC(=O)c1cnc2c(F)cccc2c1 [F-3, N-[(1S)-1-(cyclohexylmeth-yl)-3,3,3-trifluoro-1-methyl-propyl]-8-fluoro-quinoline-3-carboxamide] | ≥ 80% | ≥ 80% | ≥ 80% | – | ≥ 80% | ≥ 80% | 132 to 133 °C | ≥ 80% | ≥ 80% | –
CC(CC1CCCC1)(CC(F)(F)F)NC(=O)c1cnc2ccccc2c1 (centres unmarked) [E-63] | ≥ 80% | ≥ 80% | ≥ 80% | ≥ 80% | ≥ 80% | ≥ 80% | 94 to 103 °C | ≥ 80% | – | –
C/C=C(\C)CC(C)(CC(C)C)NC(=O)c1cnc2c(F)cccc2c1 (centres unmarked) [E-5] | ≥ 80% | ≥ 80% | ≥ 80% | ≥ 80% | ≥ 80% | ≥ 80% | – | – | – | ≥ 80%
CCC(CC)CC(C)(CC(F)(F)F)NC(=O)c1cnc2c(F)cccc2c1 (centres unmarked) [E-45] | ≥ 80% | ≥ 80% | ≥ 80% | – | ≥ 80% | ≥ 80% | – | – | – | ≥ 80%
CC(C)CC(CC(C)C)NC(=O)c1cnc2c(F)cccc2c1 [E-9] | ≥ 80% | ≥ 80% | ≥ 80% | ≥ 80% | ≥ 80% | ≥ 80% | 170 to 172 °C | – | – | ≥ 80%
CC(C)=C(F)CC(CC(C)C)NC(=O)c1cnc2c(F)cccc2c1 (centres unmarked) [E-18] | ≥ 80% | ≥ 80% | ≥ 80% | ≥ 80% | ≥ 80% | ≥ 80% | 75 to 76 °C | – | – | ≥ 80%
CC(C)=C(F)CC(C)(CC(C)C)NC(=O)c1cnc2c(F)cccc2c1 (centres unmarked) [E-6] | ≥ 80% | ≥ 80% | ≥ 80% | ≥ 80% | ≥ 80% | ≥ 80% | 119 to 121 °C | – | – | ≥ 80%
CC(C)(CCCc1ccccc1)NC(=O)c1cnc2c(F)cccc2c1 [E-23] | ≥ 80% | ≥ 80% | ≥ 80% | ≥ 80% | ≥ 80% | – | – | – | – | ≥ 80%
CC(C)(Cc1ccccc1)C(C)(C)NC(=O)c1cnc2c(F)cccc2c1 [E-21] | ≥ 80% | – | ≥ 80% | ≥ 80% | ≥ 80% | ≥ 80% | 131 to 132 °C | – | – | ≥ 80%
C=C(C)CC(C)(CC1CCCCC1)NC(=O)c1cnc2c(F)c(F)ccc2c1 (centres unmarked) [E-48] | ≥ 80% | ≥ 80% | ≥ 80% | ≥ 80% | ≥ 80% | ≥ 80% | 115 to 117 °C | ≥ 80% | – | –
